According to US5717094A, “Process and intermediates for preparing compounds having a disubstituted acetylene moiety and retinoic acid-like biological activity” (Allergan, priority 1991, dated 1998):

Legend:
[1] = tested on: ornithine decarboxylase (ODC), TPA induced; test: Inhibition of TPA-induced ornithine decarboxylase (ODC) activity, essentially the method of Verma & Boutwell; format: biochemical; settings: concentration attaining 80% inhibition of TPA induced ODC activity
Source text: The retionic acid like activity of these compounds was confirmed through the classic measure of retionic acid activity involving the effects of retionic acid on ornithine decarboxylase. The original work on the correlation between retionic acid and decrease in cell proliferation was done by Verma & Boutwell, Cancer Research, 1977, 37, 2196-2201. That reference discloses that ornithine decarboxylase (ODC) activity increased precedent to polyamine biosynthesis. It has been established elsewhere that increases in polyamine synthesis can be correlated or associated with cellular proliferation. Thus, if ODC activity could be inhibited, cell hyperproliferation could be modulated. Although all causes for ODC activity increase are unknown, it is known that 12-0-tetradecanoylphorbol-13-acetate (TPA) induces ODC activity.
By way of example of retionic acid-like activity it is noted that in the assay conducted essentially in accordance with the method of Verman & Boutwell, ibid, the following examples of compounds made in accordance with the process of the present invention (Compounds 10, 11 and 12) attained an 80% inhibition of TPA induced ODC activity at the following concentrations (IC80): […]

[2] = tested on: ornithine decarboxylase (ODC), TPA induced; settings: background statement on retinoic acid; Verma & Boutwell, Cancer Research, 1977, 37, 2196-2201; cited from earlier work

IC80 conc [1] | Structure (SMILES) | inhibition of induction of ODC activity by TPA [2]
0.69 mmols | CCOC(=O)c1ccc(C#Cc2ccc3c(c2)C(C)(C)CC(C)(C)S3)nc1 [Compound 10] | –
– | CC1=C(/C=C/C(C)=C/C=C/C(C)=C/C(=O)O)C(C)(C)CCC1 [Retionic acid, retionic acid] | inhibits this induction of ODC activity by TPA
0.13 mmols | CCOC(=O)c1ccc(C#Cc2ccc3c(c2)C(C)(C)CC(C)(C)O3)nc1 [Compound 11] | –
0.2 mmols | CCOC(=O)c1ccc(C#Cc2cc3c(cc2C)OC(C)(C)CC3(C)C)nc1 [Compound 12, Ethyl-6-[(2,2,4,4,7-pentamethyl-6-chromanyl)-ethynyl nicotinate] | –
